Test results taken from patent publication US12122821B2, “Regulation of glucose metabolism using anti-CGRP antibodies” (H. LUNDBECK A/S, priority 2013, dated 2024).

Key:
Type in all cases: in vivo
[1] = test system: Zucker diabetic fatty (ZDF) rat; test: Fructosamine and HbA1c in ZDF rats (Example 3); conditions: vs vehicle ZDF
Method: (§1) For the groups treated with AB14, the antibody was administered once weekly via the caudal vein (i.v., 5 mL/kg) on days 1, 8, 15, and 22 at two different doses 20 mg/kg/week (groups 3 and 7) or 60 mg/kg/week (groups 4 and 8). All other groups were treated once weekly with vehicle 1 (i.v., 5 mL/kg). The intravenous treatments were performed in the morning on day 1, 8, 15, and 22 while under isoflurane anaesthesia. The volume of administration was individually adapted according to the most recent body weight.
(§2) All other groups were treated daily with vehicle 2 (p.o., 5 mL/kg) for 28 days. The most recent body weight was used to calculate the average volume of administration in each group.
(§3) Fasting blood glucose (glucometers) was measured on days 0, 12, 19, and 26. Fasting plasma insulin, peptide-C (ELISA method), free fatty acids, triglycerides, total cholesterol (colorimetric method), and HDL-cholesterol (phosphotungstate precipitation, colorimetric method) were measured on day 0, and prior to dosing on days 12, 19, and day 26. Non HDL-cholesterol was calculated as total cholesterol—HDL-cholesterol. Fructosamine was measured on days 0, 19 and 28. HbA1c (DCA 2000) was measured on days 0 and 28.

[2] = test system: Zucker diabetic fatty (ZDF) rat; test: Plasma triglycerides, free fatty acids and cholesterol in ZDF rats (Example 3); conditions: for increase of plasma HDL-cholesterol / decrease of plasma non HDL-cholesterol levels: vs vehicle; for lowering of plasma free fatty acids levels: vs vehicle ZDF
Method: as §1, §2
(§4) A fasting (6 hours on day 0 from 8:00 am to 02:00 pm, and overnight on day 12, 19 and 26 from ˜6:00 pm to ˜8:00 am) was performed before each blood collection. Blood was collected at ˜2:00 pm, from the tip of the tail, on day 0 (before screening, 150 μL, potassium EDTA), and at ˜8:00 am prior to dosing on days 12 (110 μL, potassium EDTA), 19 (150 μL, potassium EDTA) and 26, (110 μL, potassium EDTA).
as §3

[3] = test system: Zucker diabetic fatty (ZDF) rat; test: Fasting blood glucose, plasma insulin, C-peptide and HOMA-IR in ZDF rats (Example 3); conditions: vs vehicle ZDF
Method: as §1, §2, §4, §3

[4] = test system: Zucker diabetic fatty (ZDF) rat; test: Oral glucose tolerance test on day 26 in ZDF rats (Example 3)
Method: The oral glucose tolerance test (OGTT) was performed as follows. On day 25, rats were fasted at ˜6:00 pm and an oral glucose tolerance test was performed the day after (on day 26). At ˜8:00 am (T-60) a blood collection (110 μL, EDTA) was performed for biochemical parameters measurements. One hour after (˜09:00 am), an oral glucose bolus (1.5 g/kg) was administered (T0). Blood glucose was measured (glucometer or colorimetric method in case of high glycaemia) on T-60, T0, T15, T30, T60, T90, T120, and T180 minutes. Area under the curve (AUC) was calculated based on the blood glucose values measured at T0. Plasma insulin and C-peptide were measured (ELISA method) on T-60, T15 (·40 μL of blood, EDTA), and T30 minutes (·40 μL of blood, EDTA).

[5] = test system: Zucker diabetic fatty (ZDF) rat; test: Body weight and food intake in ZDF rats (Example 3); conditions: pioglitazone 10 mg/kg/day, vs vehicle ZDF
Method: as §1, with “weight. […] All other groups were treated daily with vehicle 2 (p.o., 5 mL/kg) for 28 days. The most recent body weight was used to calculate the average volume of administration in each group. Body weight was measured twice a week during the 4 weeks of treatment. Food consumption was measured just before the screening procedure and then twice weekly over 24 h during the first three weeks of treatment. Food consumption was measured once weekly during the week of OGTT (week 4).” for “weight.”

[6] = day 12, pioglitazone 10 mg/kg/day
[7] = day 19, pioglitazone 10 mg/kg/day
[8] = day 26, pioglitazone 10 mg/kg/day
[9] = days 12, 19 and 26, pioglitazone 10 mg/kg/day
[10] = OGTT day 26, pioglitazone 10 mg/kg/day, vs vehicle ZDF

## CCc1ccc(CCOc2ccc(CC3SC(=O)NC3=O)cc2)nc1 (centres unmarked) [pioglitazone]
[1]; 28 days, pioglitazone 10 mg/kg/day, metformin 200 mg/kg/day
  decrease of HbA1c: 44%
[1]; day 19, pioglitazone 10 mg/kg/day, metformin 200 mg/kg/day
  reduction of fructosamine levels: 30%
[1]; day 28, pioglitazone 10 mg/kg/day
  reduction of fructosamine levels: 25%
[2]; [6]
  increase of plasma HDL-cholesterol: 38%
  lowering of plasma free fatty acids levels: 35%
[2]; [7]
  decrease of plasma non HDL-cholesterol levels: 49%
  increase of plasma HDL-cholesterol: 17%
  lowering of plasma free fatty acids levels: 17%
[2]; [8]
  decrease of plasma non HDL-cholesterol levels: 47%
  increase of plasma HDL-cholesterol: 19%
  lowering of plasma free fatty acids levels: 30%
[3]; [6]
  reduction of HOMA-IR: 67%
[3]; [7]
  reduction of HOMA-IR: 62%
[3]; [8]
  reduction of HOMA-IR: 54%
[3]; [9]
  plasma C-peptide levels: no effect
  plasma insulin levels: no effect
[4]; [10]
  increase of C-peptide secretion (relative to T-60) at T15: 21%
  increase of C-peptide secretion (relative to T-60) at T30: 22%
  increase of insulin secretion (relative to T-60) at T30: 5%
[4]; OGTT day 26, vs vehicle ZDF (pioglitazone 10 mg/kg/day)
  increase of insulin secretion (relative to T-60) at T15: 20%
[4]; day 26, pioglitazone 10 mg/kg/day, metformin 200 mg/kg/day, vs vehicle ZDF
  reduction in blood glucose AUC (OGTT): 54%
[5]
  body weight gain at the end of the treatment: 3 fold
[5]; NS
  increase of cumulative food intake: 14%
